From paper PMC6226504, “Ca^2+ efflux via plasma membrane Ca^2+-ATPase mediates chemotaxis in ascidian sperm” (Scientific Reports, 2018)

Target: T1, plasma membrane Ca2+-ATPase (PMCA), Atp2b-var.b-mut3 (Ciona intestinalis, UniProt A0A3G9HPC9, R951A/H956A/H962A)
T1 construct: Atp2b-var.b-mut3, recombinant, in Sf9 cell membrane fraction
Test: quartz crystal microbalance (QCM), mutant compared with wild-type membranes
Type: binding

T1 sequence (A0A3G9HPC9 1-1165 R951A/H956A/H962A): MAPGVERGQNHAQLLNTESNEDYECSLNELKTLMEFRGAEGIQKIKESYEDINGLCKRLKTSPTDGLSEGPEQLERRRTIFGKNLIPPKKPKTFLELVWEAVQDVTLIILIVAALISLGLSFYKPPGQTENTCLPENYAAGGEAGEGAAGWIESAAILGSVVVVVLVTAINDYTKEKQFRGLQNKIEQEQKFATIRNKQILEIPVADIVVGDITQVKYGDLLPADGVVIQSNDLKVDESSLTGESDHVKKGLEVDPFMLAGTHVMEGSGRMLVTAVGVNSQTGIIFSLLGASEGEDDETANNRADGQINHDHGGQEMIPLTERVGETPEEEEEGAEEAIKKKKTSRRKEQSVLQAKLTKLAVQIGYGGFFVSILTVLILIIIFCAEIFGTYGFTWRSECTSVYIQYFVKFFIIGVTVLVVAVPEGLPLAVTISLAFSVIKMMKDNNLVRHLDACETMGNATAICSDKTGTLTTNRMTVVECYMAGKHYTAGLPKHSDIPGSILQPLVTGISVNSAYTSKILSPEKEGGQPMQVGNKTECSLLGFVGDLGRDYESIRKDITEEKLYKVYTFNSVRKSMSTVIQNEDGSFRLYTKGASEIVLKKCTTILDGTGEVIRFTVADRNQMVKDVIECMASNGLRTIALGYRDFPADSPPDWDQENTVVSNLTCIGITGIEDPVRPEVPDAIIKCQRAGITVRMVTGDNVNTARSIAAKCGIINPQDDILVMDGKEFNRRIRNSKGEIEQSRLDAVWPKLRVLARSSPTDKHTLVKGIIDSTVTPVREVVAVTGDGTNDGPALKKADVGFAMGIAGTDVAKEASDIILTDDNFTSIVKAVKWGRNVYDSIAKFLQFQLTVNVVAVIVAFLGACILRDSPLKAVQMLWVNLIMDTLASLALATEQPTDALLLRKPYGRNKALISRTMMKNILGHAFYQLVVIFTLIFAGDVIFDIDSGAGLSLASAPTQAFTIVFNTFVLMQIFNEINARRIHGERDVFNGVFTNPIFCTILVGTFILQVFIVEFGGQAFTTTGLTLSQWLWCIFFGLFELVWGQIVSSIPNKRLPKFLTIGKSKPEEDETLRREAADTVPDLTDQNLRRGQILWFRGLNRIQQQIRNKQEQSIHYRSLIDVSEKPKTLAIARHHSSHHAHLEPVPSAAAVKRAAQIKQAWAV

## C[C@@H](CCC[C@@H](C)[C@H]1CC[C@H]2[C@@H]3[C@H](O)C[C@H]4[C@@H](O)[C@H](OS(=O)(=O)O)CC[C@]4(C)[C@H]3CC[C@]12C)COS(=O)(=O)O [SAAF]
  quartz crystal microbalance (QCM), mutant compared with wild-type membranes: Atp2b-var.b-mut3 showed the same interaction compared to the wild-type
